4 compounds from publication PMC7827406, “Structure–Activity Relationship (SAR) Study of Spautin-1 to Entail the Discovery of Novel NEK4 Inhibitors” (International Journal of Molecular Sciences, 2021) can be followed below.

Assay in all cases: biochemical
Common to all, as to parameters: Eurofins KinaseProfiler full panel at Km ATP, residual kinase activity (%) relative to DMSO

For one assay, the target named is BTK(h) (Homo sapiens, UniProt Q06187). The method, boiled down:
(§1)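 Compounds screened at 10 µM in radiometric kinase activity assays at Km ATP, reported as remaining kinase activity (%). A KINOMEscan competition-binding screen at 10 µM measured DNA-tagged kinase retained on immobilized active-site ligand by qPCR.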

For the next assay, the target named is T1, CK1γ1(h) (Homo sapiens, UniProt Q9HCP0).
T1 construct: gene CSNK1G1
T1 sequence (Q9HCP0 whole entry): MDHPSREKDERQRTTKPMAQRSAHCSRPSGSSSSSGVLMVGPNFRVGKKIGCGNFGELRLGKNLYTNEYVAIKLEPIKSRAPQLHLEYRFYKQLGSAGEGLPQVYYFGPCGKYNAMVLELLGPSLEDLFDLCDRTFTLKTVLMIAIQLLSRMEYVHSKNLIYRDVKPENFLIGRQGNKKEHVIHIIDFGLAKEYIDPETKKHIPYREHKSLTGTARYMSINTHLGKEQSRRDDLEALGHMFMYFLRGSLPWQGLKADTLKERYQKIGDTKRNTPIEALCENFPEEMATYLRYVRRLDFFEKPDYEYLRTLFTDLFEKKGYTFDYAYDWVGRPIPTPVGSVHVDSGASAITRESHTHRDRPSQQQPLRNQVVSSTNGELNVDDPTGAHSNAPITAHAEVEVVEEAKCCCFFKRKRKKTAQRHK
A digest of the protocol:
as §1

A further assay addresses T2, CaMKIV(h) (Homo sapiens, UniProt Q16566).
T2 construct: gene CAMK4
T2 sequence (Q16566 1-473): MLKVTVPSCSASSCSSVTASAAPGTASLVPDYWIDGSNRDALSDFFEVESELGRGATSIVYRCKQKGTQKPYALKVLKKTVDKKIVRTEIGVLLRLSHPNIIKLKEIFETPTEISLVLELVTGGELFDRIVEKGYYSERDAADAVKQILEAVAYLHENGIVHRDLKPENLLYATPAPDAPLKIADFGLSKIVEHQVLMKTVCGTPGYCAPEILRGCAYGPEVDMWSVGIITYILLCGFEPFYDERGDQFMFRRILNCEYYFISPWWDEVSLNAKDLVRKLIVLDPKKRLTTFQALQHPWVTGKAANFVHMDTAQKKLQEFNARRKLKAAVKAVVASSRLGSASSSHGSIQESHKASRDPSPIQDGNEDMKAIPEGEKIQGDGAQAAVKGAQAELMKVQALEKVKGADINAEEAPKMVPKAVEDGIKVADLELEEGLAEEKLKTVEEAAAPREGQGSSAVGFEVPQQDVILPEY
The method, boiled down:
as §1

For the next assay, the target named is T3, EphA3(h) (Homo sapiens, UniProt P29320).
T3 sequence (P29320 1-983): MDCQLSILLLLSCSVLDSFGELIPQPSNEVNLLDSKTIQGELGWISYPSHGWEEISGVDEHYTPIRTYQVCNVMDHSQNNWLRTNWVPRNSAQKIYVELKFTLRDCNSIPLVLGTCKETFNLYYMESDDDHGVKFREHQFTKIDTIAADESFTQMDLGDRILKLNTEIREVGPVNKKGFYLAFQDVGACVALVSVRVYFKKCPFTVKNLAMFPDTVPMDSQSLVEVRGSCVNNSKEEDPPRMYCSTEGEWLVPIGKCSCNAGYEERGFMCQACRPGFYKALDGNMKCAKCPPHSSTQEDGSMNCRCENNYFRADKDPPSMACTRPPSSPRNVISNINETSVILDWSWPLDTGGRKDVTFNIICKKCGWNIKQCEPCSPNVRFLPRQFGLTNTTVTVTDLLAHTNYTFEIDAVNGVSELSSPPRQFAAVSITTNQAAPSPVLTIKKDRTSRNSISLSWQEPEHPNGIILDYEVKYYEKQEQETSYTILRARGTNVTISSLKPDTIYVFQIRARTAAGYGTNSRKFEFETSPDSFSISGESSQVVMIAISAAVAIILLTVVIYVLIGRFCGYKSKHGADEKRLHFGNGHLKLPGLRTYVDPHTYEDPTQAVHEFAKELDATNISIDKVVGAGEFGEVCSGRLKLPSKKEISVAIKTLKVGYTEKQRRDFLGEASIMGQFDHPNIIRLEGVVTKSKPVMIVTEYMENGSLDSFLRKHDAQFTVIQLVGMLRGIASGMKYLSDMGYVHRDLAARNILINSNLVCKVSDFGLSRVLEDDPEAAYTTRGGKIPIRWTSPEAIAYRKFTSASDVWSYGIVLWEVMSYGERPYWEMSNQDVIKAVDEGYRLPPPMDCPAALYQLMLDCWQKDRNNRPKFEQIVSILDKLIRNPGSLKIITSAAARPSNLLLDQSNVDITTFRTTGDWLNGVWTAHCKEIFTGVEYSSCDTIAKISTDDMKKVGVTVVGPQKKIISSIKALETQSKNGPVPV
A digest of the protocol:
as §1

Where [1] appears, read: read-out: Residual activity (%) 5at.
Where [2] appears, read: read-out: Residual activity (%) 5ay.
The mark [3] stands for this setting: read-out: Residual activity (%) 5as.
Setting [4] is: read-out: Residual activity (%) Spautin-1 5aa.

Where two headings read alike, the source gives them in different places.

BTK(h), sequence (Q06187 whole entry): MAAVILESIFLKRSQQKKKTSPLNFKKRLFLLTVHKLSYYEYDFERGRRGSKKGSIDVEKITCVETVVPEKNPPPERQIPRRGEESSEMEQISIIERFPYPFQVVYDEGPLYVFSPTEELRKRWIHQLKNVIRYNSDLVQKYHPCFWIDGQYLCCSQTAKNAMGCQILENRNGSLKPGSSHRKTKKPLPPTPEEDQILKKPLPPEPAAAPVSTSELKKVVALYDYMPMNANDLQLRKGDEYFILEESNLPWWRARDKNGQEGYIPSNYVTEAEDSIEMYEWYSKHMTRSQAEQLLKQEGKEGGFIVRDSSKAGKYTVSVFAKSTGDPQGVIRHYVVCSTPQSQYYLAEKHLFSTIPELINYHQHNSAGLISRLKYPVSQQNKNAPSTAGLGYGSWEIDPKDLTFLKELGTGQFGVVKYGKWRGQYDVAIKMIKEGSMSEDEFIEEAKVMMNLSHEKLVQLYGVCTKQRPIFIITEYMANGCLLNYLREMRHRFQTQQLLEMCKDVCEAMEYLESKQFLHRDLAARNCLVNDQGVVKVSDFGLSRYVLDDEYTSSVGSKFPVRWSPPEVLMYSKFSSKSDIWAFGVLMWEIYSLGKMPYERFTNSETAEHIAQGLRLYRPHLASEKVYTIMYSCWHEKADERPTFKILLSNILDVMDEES

Consider `Fc1ccc2ncnc(NCCc3ccc(Cl)cc3)c2c1` [5at, N-[2-(4-Chlorophenyl)Ethyl]-6-Fluoro-4-Quinazolinamine], for which the remaining activity at 10 µM was 96% on BTK(h) (setting [1]), 80% on CK1γ1(h) (setting [1]), 81% on CaMKIV(h) (setting [1]) and 94% at EphA3(h) (setting [1]).

Take `COc1ccc2ncnc(Nc3cccc(F)c3)c2c1` [5ay, N-(3-Fluorophenyl)-6-Methoxy-4-Quinazolinamine]: the remaining activity at 10 µM on BTK(h) (setting [2]) worked out at 126%; on CK1γ1(h) (setting [2]), 94%; at CaMKIV(h) (setting [2]), 68%; at EphA3(h) (setting [2]), 110%.

With `Fc1ccc(CCNc2ncnc3ccc(F)cc23)cc1` [5as, 6-Fluoro-N-[2-(4-Fluorophenyl)Ethyl]-4-Quinazolinamine], the remaining activity at 10 µM on BTK(h) (setting [3]) was 113%; on CK1γ1(h) (setting [3]), 80%; on CaMKIV(h) (setting [3]) it was 75%; at EphA3(h) (setting [3]) it was 108%.

Turning to `Fc1ccc(CNc2ncnc3ccc(F)cc23)cc1` [5aa, 6-Fluoro-N-(4-fluorobenzyl)-4-Quinazolinamine], the remaining activity at 10 µM on BTK(h) (setting [4]) was 123%; at CK1γ1(h) (setting [4]), 99%; on CaMKIV(h) (setting [4]), 81%; on EphA3(h) (setting [4]), 116%.
